In ChEMBL document CHEMBL5046321, “Discovery by Virtual Screening of an Inhibitor of CDK5-Mediated PPARγ Phosphorylation” (ACS Med Chem Lett, 2022):
Converted amounts (≈) assume the structure as drawn.

Tests used:
[1] = Lipophilicity, logD of compound at pH 7.4 by shake flask assay based LC-MS/MS analysis; format: physicochemical; conditions: buffer
[2] = Aqueous solubility of the compound by LC-MS/MS analysis; format: physicochemical; conditions: buffer
[3] = Metabolic stability in human Hepatocyte assessed as intrinsic clearance in 1 million cells/mL measured upto 60 mins by LC-MS/MS analysis; format: ADME, cell-based; conditions: hepatocytes, read-out: CLH
[4] = Metabolic stability in rat Hepatocyte assessed as intrinsic clearance in 1 million cells/mL measured upto 120 mins by LC-MS/MS analysis; format: ADME, cell-based; conditions: hepatocytes, read-out: CLH
[5] = Metabolic stability in mouse Hepatocyte assessed as intrinsic clearance in 1 million cells/mL by LC-MS/MS analysis; format: ADME, cell-based; conditions: hepatocytes, read-out: CLH
[6] = Apparent permeability in human Caco-2 cells at 10 uM incubated for 45 to 120 mins by LC-MS/MS analysis; format: ADME, cell-based; conditions: time 45-120 min, read-out: permeability
[7] = Oral bioavailability in lean C57BL/6J mouse at 100 umol/kg dosed daily for 7 days by HPLC-MS analysis; format: ADME, organism-based; conditions: in vivo, at 100 µmol/kg, time 7 day
[8] = Cmax in lean C57BL/6J mouse at 100 umol/kg, po dosed daily for 7 days by HPLC-MS analysis; format: ADME, organism-based; design: route oral, dose 100 µmol/kg, time 7 day; conditions: in vivo
[9] = Half life in lean C57BL/6J mouse at 100 umol/kg, po dosed daily for 7 days by HPLC-MS analysis; format: ADME, organism-based; conditions: in vivo, dose 100 µmol/kg, time 7 day
[10] = Metabolic stability in human liver microsomes assessed as intrinsic clearance measured upto 30 mins by LC-MS/MS analysis; format: ADME, Microsome; conditions: read-out: CLH

Compound `O=C(O)c1nn(Cc2ccc(Cl)c(Cl)c2)c(=O)c2cc(Oc3ccccc3)ccc12` has a logD [1] of 2.3, a solubility [2] of 324 µM (≈ 143 µg/mL) and a hepatocyte CLint [3] of 15.2 µL/min/1e6 cells. For the same compound, the hepatocyte CLint [4] was 8.8 µL/min/1e6 cells, the hepatocyte CLint [5] was 10 µL/min/1e6 cells and the Papp at 10 µM [6] was 13 ×10⁻⁶ cm/s. It also gave a bioavailability [7] of 109%, a Cmax [8] of 167 µM and a half-life [9] of 5 h. For the same compound, the microsomal CLint [10] was less than 4 µL/min/mg.
